Where two headings read alike, the source gives them in different places.
How the values were obtained:
[1] = target: T1, CAAX farnesyltransferase (Rattus norvegicus, UniProt Q02293+Q04631); experiment: In vitro inhibition of CAAX farnesyltransferase; assay type: biochemical; set-up: purified to homogeneity from rat brain homogenates; from tissue; host or cells: rat brain; alternatively recombinant enzyme from a baculovirus expression system; conditions: Table D
Procedure: All compounds were tested for in vitro inhibition of CAAX protein farnesyltransferase. […] Alternatively, recombinant CAAX protein farnesyltransferase was also used in this assay. […] Seventy-two hrs after infection, the cells were harvested and disrupted and the enzyme isolated by chromatography on Q-Sepharose.
After incubation for 30 min at 37° C., the amount of [3H]famesyl group transferred to p21H-ras was measured by precipitation with SDS/trichloroacetic acid, filtration onto nitrocellulose, and scintillation counting.
Structures of the compounds tested are reproduced below. Compound numbers also refer to example numbers above.

[2] = target: T1, CAAX farnesyltransferase; experiment: In vitro farnesylation of the compound by CAAX farnesyltransferase (substrate test, thin layer chromatography); assay type: biochemical; conditions: relative to tetrapeptide CVIM, 3.6 μM, 37° C., 30 min; for % farnesylation "A": diastereomer A; for % farnesylation "B": diastereomer B
Procedure: After incubation at 37° C. for 30 min, the reaction was stopped by addition of 2 μl of 250 mM EDTA, and the entire reaction mixture was spotted onto a plastic-backed Silica Gel G thin layer sheet (20×20 cm, Brinkmann Inst.) and placed in a tank containing n-propyl alcohol/ammonium hydroxide/water (6:3:1 v/v/v).

[3] = diastereomer A, read-out: EC50 (μM) "A"
[4] = diastereomer B, read-out: EC50 (μM) "B"

T1 sequence (Q02293 whole entry, one chain of several): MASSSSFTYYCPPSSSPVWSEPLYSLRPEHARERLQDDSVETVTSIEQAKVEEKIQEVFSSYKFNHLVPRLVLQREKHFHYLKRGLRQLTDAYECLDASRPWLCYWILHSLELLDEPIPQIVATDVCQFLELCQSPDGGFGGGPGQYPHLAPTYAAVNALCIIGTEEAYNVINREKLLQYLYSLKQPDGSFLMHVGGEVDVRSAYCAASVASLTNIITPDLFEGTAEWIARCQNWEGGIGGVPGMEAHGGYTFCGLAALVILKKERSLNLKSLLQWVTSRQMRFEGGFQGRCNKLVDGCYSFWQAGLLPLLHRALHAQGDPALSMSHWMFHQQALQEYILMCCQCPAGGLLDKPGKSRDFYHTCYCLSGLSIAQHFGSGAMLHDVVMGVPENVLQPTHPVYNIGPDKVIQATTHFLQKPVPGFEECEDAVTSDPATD

| SMILES | EC50 [1, 3] | EC50 [1, 4] | % farnesylation "A" [2] | % farnesylation "B" [2] |
| --- | --- | --- | --- | --- |
| CSCC[C@H](NC(=O)CN1C(=O)C(N(C)C(=O)[C@@H](N)CS)CCc2ccccc21)C(=O)O (stereo partly shown) [compound 9] | 1.2 µM | 0.024 µM | < 1% | < 1% |
| CSCC[C@H](NC(=O)CN1C(=O)C(NC(=O)[C@@H](N)CS)CCc2ccccc21)C(=O)O (stereo partly shown) [compound 10] | 1.6 µM | 1.4 µM | 20% | < 1% |
| CSCC[C@H](NC(=O)CN1C(=O)C(N(C)C(=O)[C@@H](N)CS)N=C(c2ccccc2)c2ccccc21)C(=O)O (stereo partly drawn) [compound 27, N-[[3-[(2-amino-3-mercapto-1-oxopropyl)methylamnino]-2,3-dihydro-2-oxo-5-phenyl-1H -1,4-benzodiazepin-1-yl]acetyl]-L-methionine] | 0.8 µM | 0.0003 µM | 5% | < 1% |
| CSCC[C@H](NC(=O)CN1C(=O)C(N(C)C(=O)[C@@H](N)CS)C=C(c2ccccc2F)c2cc(Cl)ccc21)C(=O)O (stereo partly drawn) [compound 80, N-[[3-[(2-amino-3-mercapto-1-oxopropyl)methylamino]-2,3-dihydro-2-oxo-5-(2'-fluorophenyl)-7-chloro-1H-1,4-benzazepin-1-yl]acetyl]-L-methionine] | 0.0003 µM | 0.0003 µM |  |  |
| CSCC[C@H](NC(=O)CN1C(=O)C(N(C)C(=O)[C@@H](N)CS)N=C(c2ccccc2Cl)c2cc(Cl)ccc21)C(=O)O (stereo partly drawn) [compound 81, N-[[3-[(2-amino-3-mercapto-1-oxopropyl)methylamino]-2,3-dihydro-2-oxo-5-(2'-chlorophenyl)-7-chloro-1H-1,4-benzodiazepin-1-yl]acetyl]-L-methionine] | 0.43 µM | 0.0002 µM |  |  |
| CSCC[C@H](NC(=O)CN1C(=O)C(N(C)C(=O)[C@@H](N)CS)N=C(c2ccccc2F)c2cc(Cl)ccc21)C(=O)O (stereo partly drawn) [compound 82, N-[[3-[(2-amino-3-mercapto-1-oxopropyl)methylamino]-2,3-dihydro-2-oxo-5-(2'-fluorophenyl)-7-chloro-1H-1,4-benzodiazepin-1-yl]acetyl]-L-methionine] | 0.25 µM | 0.001 µM |  |  |
| CSCC[C@H](NC(=O)CN1C(=O)C(N(C)C(=O)[C@@H](N)CS)C=C(c2ccccc2)c2cc(Cl)ccc21)C(=O)O (stereo partly drawn) [compound 83, N-[[3-[(2-amino-3-mercapto-1-oxopropyl)methylamino]-2,3-dihydro-2-oxo-5-phenyl-7-chloro-1H-1,4-benzazepin-1-yl]acetyl]-L-methionine] |  | 0.0007 µM |  |  |
| CSCC[C@H](NC(=O)CN1C(=O)C(N(C)C(=O)[C@@H](N)CS)C=C(c2ccccc2Cl)c2cc(Cl)ccc21)C(=O)O (stereo partly shown) [compound 92] | 0.001 µM | 0.001 µM |  |  |
| CN(C(=O)C(N)CS)C1N=C(c2ccccc2)c2ccccc2N(Cc2cccc(C#N)c2)C1=O (stereo not shown) [compound 93, N-[[3-[(2-amino-3-mercapto-1-oxopropyl)methylamino]-2,3-dihydro-2-oxo-5-phenyl-1H-1,4-benzodiazepin-1-yl]methyl]-3-benzonitrile] | 0.82 µM | 0.004 µM |  |  |
| COC(=O)c1cccc(CN2C(=O)C(N(C)C(=O)C(N)CS)N=C(c3ccccc3)c3ccccc32)c1 (stereo not shown) [compound 94, N-[[3-[(2-amino-3-mercapto-1-oxopropyl)methylamino]-2,3-dihydro-2-oxo-5-phenyl-1H-1,4-benzodiazepin-1-yl]methyl]-3-carboxymethylbenzene] | 0.82 µM | 0.0042 µM |  |  |
| CN(C(=O)C(N)CS)C1N=C(c2ccccc2)c2ccccc2N(Cc2cccc(C(=O)O)c2)C1=O (stereo not shown) [compound 95, N-[[3-[(2-amino-3-mercapto-1-oxopropyl)methylamino]-2,3-dihydro-2-oxo-5-phenyl-1H-1,4-benzodiazepin-1-yl]methyl]-3-carboxybenzene] | 0.88 µM | 0.0066 µM |  |  |
| CN(C(=O)C(N)CS)C1N=C(c2ccccc2)c2ccccc2N(Cc2cccc(-c3nnn[nH]3)c2)C1=O (stereo not shown) [compound 96, N-[[3-[(2-amino-3-mercapto-1-oxopropyl)methylanino]-2,3-dihydro-2-oxo-5-phenyl-1H-1,4benzodiazepin-1-yl]methyl]-3-tetrazolylbenzene] | 0.23 µM | 0.0013 µM |  |  |
| COC(=O)c1cccc(CN2C(=O)C(N(C)C(=O)[C@@H](N)CS)N=C(c3ccccc3)c3cc(Cl)ccc32)c1 (stereo partly shown) [compound 97, N-[[3-[(2-amino-3-mercapto-1-oxopropyl)methylamino]-2,3-dihydro-2-oxo-5-phenyl-7-chloro-1H-1,4-benzodiazepin-1-yl]methyl]-3-carboxymethylbenzene] |  | 0.0003 µM |  |  |
| CN(C(=O)[C@@H](N)CS)C1N=C(c2ccccc2)c2ccccc2N(Cc2ccc(-c3ccccc3-c3nnn[nH]3)cc2)C1=O (stereo partly shown) [compound 98, N-[[3-[(2-amino-3-mercapto-1-oxopropyl)methylamino]-2,3-dihydro-2-oxo-5-phenyl-1H-1,4-benzodiazepin-1-yl]methyl]-4-(2-tetrazolylphenyl) benzene] | 0.84 µM | 0.006 µM |  |  |
| Cc1cccc(CN2C(=O)C(N(C)C(=O)[C@@H](N)CS)N=C(c3ccccc3)c3cc(Cl)ccc32)c1 (stereo partly shown) [compound 102, N-[[3-[(2-amino-3-mercapto-1-oxopropyl)methylamino]-2,3-dihydro-2-oxo-5-phenyl-7-chloro-1H-1,4-benzodiazepin-1-yl]methyl]-3-methylbenzene] | 0.11 µM | 0.038 µM |  |  |
| CN(C(=O)[C@@H](N)CS)C1N=C(c2ccccc2)c2cc(Cl)ccc2N(Cc2cccc(C(F)(F)F)c2)C1=O (stereo partly shown) [compound 103, N-[[3-[(2-amino-3-mercapto-1-oxopropyl)methylamino]-2,3-dihydro-2-oxo-5-phenyl-7-chloro-1H-1,4-benzodiazepin-1-yl]methyl]-3-trifluoromethylbenzene] | 0.0074 µM | 0.0074 µM |  |  |
| Cc1ccc(CN2C(=O)C(N(C)C(=O)[C@@H](N)CS)N=C(c3ccccc3)c3cc(Cl)ccc32)cc1 (stereo partly shown) [compound 104, N-[[3-[(2-amino-3-mercapto-1-oxopropyl)methylamino]-2,3-dihydro-2-oxo-5-phenyl-7-chloro-1H-1,4-benzodiazepin-1-yl]methyl]-4-methylbenzene] | 0.0048 µM | 0.0048 µM |  |  |
| CN(C(=O)[C@@H](N)CS)C1N=C(c2ccccc2)c2cc(Cl)ccc2N(Cc2ccccc2Cl)C1=O (stereo partly shown) [compound 107, N-[[3-[(2-amino-3-mercapto-1-oxopropyl)methylamino]-2,3-dihydro-2-oxo-5-phenyl-7-chloro-1H-1,4-benzodiazepin-1-yl]methyl]-2-chlorobenzene] | 0.006 µM | 0.006 µM |  |  |
| CSCC[C@H](NC(=O)CN1C(=O)C(N(C)C(=O)[C@@H](N)CSSC(C)(C)C)C=C(c2ccccc2F)c2cc(Cl)ccc21)C(=O)OC1CCCCC1 (stereo partly drawn) [compound 113, N-[[3-[(2-amino-3-tert-butylthiomercapto-1-oxopropyl)methylamino]-2,3-dihydro-2-oxo-5-(2'-fluorophenyl)-7-chloro-1H-1,4-benzazepin-1-yl]acetyl]-L-methionine cyclohexyl ester] | > 3 µM | > 3 µM |  |  |
| CSCC[C@H](NC(=O)CN1C(=O)C(N(C)C(=O)[C@@H](N)CSSC(C)(C)C)N=C(c2ccccc2)c2ccccc21)C(=O)OC(C)(C)C (stereo partly drawn) [compound 118, N-[[3-[(2-amino-3-tert-butylthiomercapto-1-oxopropyl)methylamino]-2,3-dihydro-2-oxo-5-phenyl-1H-1,4-benzodiazepin-1-yl]acetyl]-L-methionine tert-butyl ester] |  | 0.9 µM |  |  |
